Experimental data: ChEMBL document CHEMBL5729588, “Spiro-oxazolones” (2023)

Biological target: Vasopressin V1a receptor (Homo sapiens, UniProt P37288)
Test: Pharmacological Assay: The human V1a receptor was cloned by RT-PCR from total human liver RNA. The coding sequence was subcloned in an expression vector after sequencing to confirm the identity of the amplified sequence. […] Cell membranes were prepared from HEK293 cells transiently transfected with the expression vector and grown in 20 liter fermenters with the following protocol. 50 g of cells are re-suspended in 30 ml freshly prepared ice cold Lysis buffer ([…] HEPES. 1 mM EDTA, 10 mM MgCl adjusted to pH=7.4+complete cocktail of protease inhibitor (Roche Diagnostics)). Homogenized with Polytron for 1 min and sonicated on ice for 2×2 minutes at 80% intensity (Vibracell sonicator). The preparation is centrifuged 20 min at 500 g at 4° C., the pellet is discarded and the supernatant centrifuged 1 hour at 43'000 g at 4° C. (19'000 rpm). The pellet is re-suspended in 12.5 ml Lysis buffer+12.5 ml Sucrose 20% and homogenized using a Polytron for 1-2 min. The protein concentration is determined by the Bradford method and aliquots are stored at −80° C. until use. For binding studies 60 mg Yttrium silicate SPA beads (Amersham) are mixed with an aliquot of membrane in binding buffer (50 mM Tris, 120 mM NaCl, 5 mM KCl, 2 mM CaCl, 10 mM MgCl) for 15 minutes with mixing. 50 μl of bead/membrane mixture is then added to each well of a 96 well plate, followed by […] of 4 nM 3H-Vasopressin (American Radiolabeled Chemicals). For total binding measurement 100 μl of binding buffer are added to the respective wells, for non-specific binding 100 μl of 8.4 mM cold vasopressin and for compound testing 100 μl of a serial dilution of each compound in 2% DMSO. The plate is incubated 1 h at room temperature, centrifuged 1 min at 1000 g and counted on a Packard Top-Count. Non-specific binding counts are subtracted from each well and data is normalized to the maximum specific binding set at 100%. To calculate an IC 50 the curve is fitted using a non-linear regression model (XLfit) and the K, is calculated using the Cheng-Prussoff equation.

Vasopressin V1a receptor, sequence (P37288 whole entry): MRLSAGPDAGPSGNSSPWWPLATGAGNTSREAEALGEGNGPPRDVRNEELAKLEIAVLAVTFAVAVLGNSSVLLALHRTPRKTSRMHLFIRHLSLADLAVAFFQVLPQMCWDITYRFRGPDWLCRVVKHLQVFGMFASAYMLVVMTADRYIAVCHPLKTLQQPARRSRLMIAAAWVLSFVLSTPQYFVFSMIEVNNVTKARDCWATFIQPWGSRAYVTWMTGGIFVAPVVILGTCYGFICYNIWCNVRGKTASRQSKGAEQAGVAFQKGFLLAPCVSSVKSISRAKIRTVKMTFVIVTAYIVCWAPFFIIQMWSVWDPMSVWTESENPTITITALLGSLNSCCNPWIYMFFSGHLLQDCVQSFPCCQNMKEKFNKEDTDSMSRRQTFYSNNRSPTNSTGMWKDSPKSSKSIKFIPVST

Compound	Ki [nM]
O=C1N=C(N2CCC3(CC2)OCc2ccccc23)OC12CCc1ccccc1C2 (centres undefined)	1
Cc1cc2c(cn1)COC21CCN(C2=NC(=O)C3(Cc4ccccc4C3)O2)CC1	10
O=C1N=C(N2CCC3(CC2)OCc2ccccc23)OC12CCCc1ccccc12 (centres undefined)	50.1
O=C1N=C(N2CCC3(CC2)OCc2ccccc23)OC12Cc1ccc(Cl)cc1C2 (centres undefined)	1
Cc1cc2c(cn1)C1(CCN(C3=NC(=O)C4(Cc5ccccc5C4)O3)CC1)OC2=O	15.8
O=C1OC2(CCN(C3=NC(=O)C4(Cc5ccccc5C4)O3)CC2)c2cc(O)ccc21	0.794
Cc1cc2c(cn1)C1(CCN(C3=NC(=O)C4(Cc5ccccc5C4)O3)CC1)OC2	3.16
Cc1cc2c(cn1)C(=O)OC21CCN(C2=NC(=O)C3(Cc4ccccc4C3)O2)CC1	12.6
O=C1OC2(CCN(C3=NC(=O)C4(Cc5ccccc5C4)O3)CC2)c2ccccc21	1
